Laboratory results taken from US7671181B2, “Polynucleotides encoding coccidian parasite casein kinase I, a chemotherapeutic target for antiprotozoal agents” (Merck Sharp & Dohme Corp., priority 2004, dated 2010).

Tests used:
TgCKIα = TgCKIα (Toxoplasma gondii, UniProt Q6QNM1); experiment: Casein kinase assay, TgCKIα (recombinant FLAGTgCKIα or partially purified native); type: biochemical; design: other: recombinant or native forms of TgCKIα
Method: (§1) Protein kinase assays—Casein kinase activity was assayed essentially as described (Donald, R. G. K. et al., 2002, supra) using 96-well phosphocellulose plates (MAPH-NOB, Millipore; Billerica, Mass.) to capture ^33P-phosphorylated peptide or casein substrates. Kinase reactions were carried out in 40 μl volumes containing 25 mM Hepes, pH 7.4, 10 mM MgCl2, 20 mM β-glycerophosphate, 1 mM DTT, 250 μM substrate, 1 mg/mL BSA, 2 μM ATP, and 0.01 μM [γ-^33P]ATP (Perkin-Elmer, 3000 Ci/mmol). […] Casein (5% solution), partially dephosphorylated α-casein and β-casein were obtained from Sigma.
(§2) A variety of commercially available peptide substrates were evaluated. From Calbiochem (San Diego, Calif.): CKI substrate (RRKDLHDDEEDEAMSITA; SEQ ID NO:13); CKII substrate (RRADDSDDDDD; SEQ ID NO:14); Syntide-2 substrate (PLARTLSVAGLPGKK; SEQ ID NO:15); CaM kinase II substrate (281-291) (MHKNETVECLK; SEQ ID NO:16). From Promega: CKI substrate (DDDEESITRR; SEQ ID NO:17) and kemptide (LRRASLG; SEQ ID NO:18). From New England Biolabs (Beverly, Mass.): CKI phosphopeptide substrate (KRRRALS(p)VASLPGL; SEQ ID NO:19), and CKII substrate (RRREEETEEE; SEQ ID NO:20). PKG assays were performed with kemptide as substrate and 10 μM cGMP. CDPK was assayed with Syntide-2 substrate and in the presence of 100 μM CaCl2.
(§3) Purification of recombinant CKI enzymes—E. coli strain BL21 Origami™ (Novagen) was transformed with FLAGTgCKIα and FLAGTgCKIβ expression vectors, and colonies were expanded into 250 mL LB cultures grown at 37° C. […] Protein was measured with a micro-BCA reagent (Pierce) following a TCA-sodium deoxycholate step to remove residual FLAG peptide (Brown et al., 1989, Anal. Biochem. 180:136-139). […]
Preparations of FLAGTgCKIα and FLAGTgCKIβ were purified further on a SMART system FPLC 0.1 mL MonoQ anion exchange column (Pharmacia; New York, N.Y.) equilibrated in buffer A (50 mM Hepes, pH 7.4, 10% glycerol, 1 mM DTT) at room temperature. […] A linear salt gradient was applied (0-500 mM in 3 mL at 100 μl/min) and 100 μl fractions were collected and analyzed by SDS-PAGE and for CKI activity. […]

rat CKIδ = target: T1, rat CKIδ (Rattus norvegicus, UniProt Q06486); experiment: Casein kinase assay, recombinant rat CKIδ control enzyme; type: biochemical; conditions: read-out: IC50 against rodent CKIδ
T1 construct: purchased New England Biolabs
T1 sequence (Q06486 1-317 limits assumed): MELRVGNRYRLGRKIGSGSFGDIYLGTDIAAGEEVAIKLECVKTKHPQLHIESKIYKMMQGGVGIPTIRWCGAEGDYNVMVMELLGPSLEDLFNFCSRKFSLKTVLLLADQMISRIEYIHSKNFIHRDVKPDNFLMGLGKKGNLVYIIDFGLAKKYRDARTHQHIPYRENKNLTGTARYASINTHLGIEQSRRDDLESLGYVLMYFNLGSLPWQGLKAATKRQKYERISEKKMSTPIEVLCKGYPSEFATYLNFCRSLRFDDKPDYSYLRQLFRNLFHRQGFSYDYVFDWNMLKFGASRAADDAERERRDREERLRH
Method: (§4) Protein kinase assays—Casein kinase activity was assayed essentially as described (Donald, R. G. K. et al., 2002, supra) using 96-well phosphocellulose plates (MAPH-NOB, Millipore; Billerica, Mass.) to capture ^33P-phosphorylated peptide or casein substrates. Kinase reactions were carried out in 40 μl volumes containing 25 mM Hepes, pH 7.4, 10 mM MgCl2, 20 mM β-glycerophosphate, 1 mM DTT, 250 μM substrate, 1 mg/mL BSA, 2 μM ATP, and 0.01 μM [γ-^33P]ATP (Perkin-Elmer, 3000 Ci/mmol). The reactions were initiated by the addition of enzyme and incubated at room temperature for 60 min. Casein (5% solution), partially dephosphorylated α-casein and β-casein were obtained from Sigma.
Preparations of FLAGTgCKIα and FLAGTgCKIβ were purified further on a SMART system FPLC 0.1 mL MonoQ anion exchange column (Pharmacia; New York, N.Y.) equilibrated in buffer A (50 mM Hepes, pH 7.4, 10% glycerol, 1 mM DTT) at room temperature. Samples of FLAG-affinity purified enzyme (10-100 μg) were syringe-passed through a 0.22 μm (pore-size) filter before loading on the column. A linear salt gradient was applied (0-500 mM in 3 mL at 100 μl/min) and 100 μl fractions were collected and analyzed by SDS-PAGE and for CKI activity. Fractions with peak activity were retained for further analysis. The degree of purity of the partially purified FLAGTgCKIα was estimated by densitometry of silver stained SDS-PAGE gels. […]

TgCKIβ = TgCKIβ (Toxoplasma gondii, UniProt Q6QNM0); experiment: Casein kinase assay, recombinant FLAGTgCKIβ; type: biochemical; conditions: recombinant enzyme; read-out: IC50 against TgCKIβ
Method: as §1, §2
Purification of recombinant CKI enzymes—E. coli strain BL21 Origami™ (Novagen) was transformed with FLAGTgCKIα and FLAGTgCKIβ expression vectors, and colonies were expanded into 250 mL LB cultures grown at 37° C. Expression was induced with 1 mM IPTG once cultures had reached an OD600nm of 0.3-0.5, and the transformed bacteria were harvested 4-6 hours later. Cell pellets were resuspended in 15 mL of lysis buffer containing protease inhibitors and lysates prepared as described by the supplier (Bugbuster™ reagents, Novagen). The concentration of NaCl in the lysate was adjusted to 0.5 M, and 0.5 mL of FLAG-agarose beads were added (Sigma). The mixture was allowed to rock in a Nutator mixer (Becton-Dickinson; San Jose, Calif.) for 2 hours at 4° C. The slurry was then poured into an empty column and the matrix washed with 50 mL of wash buffer (50 mM Tris-HCl, pH 7.4, 0.5M NaCl, 10% glycerol, 1 mM DTT, 1 mM EDTA). Enzyme was eluted with 5 mL of 0.4 mg/mL FLAG peptide (Sigma) in NaCl-free wash buffer and concentrated with a centrifuge filtration unit (Amicon Ultra®, 10 kDa cut-off, Millipore). Protein was measured with a micro-BCA reagent (Pierce) following a TCA-sodium deoxycholate step to remove residual FLAG peptide (Brown et al., 1989, Anal. Biochem. 180:136-139). Using this procedure, and SDS-PAGE analysis, the yield of FLAGTgCKIβ was estimated as ˜200 μg of enzyme with >90% purity. Purification of FLAGTgCKIα was much less efficient with only about 1 μg of ˜10% pure enzyme obtained per 250 mL bacterial culture.
Preparations of FLAGTgCKIα and FLAGTgCKIβ were purified further on a SMART system FPLC 0.1 mL MonoQ anion exchange column (Pharmacia; New York, N.Y.) equilibrated in buffer A (50 mM Hepes, pH 7.4, 10% glycerol, 1 mM DTT) at room temperature. Samples of FLAG-affinity purified enzyme (10-100 μg) were syringe-passed through a 0.22 μm (pore-size) filter before loading on the column. A linear salt gradient was applied (0-500 mM in 3 mL at 100 μl/min) and 100 μl fractions were collected and analyzed by SDS-PAGE and for CKI activity. Fractions with peak activity were retained for further analysis. The degree of purity of the partially purified FLAGTgCKIα was estimated by densitometry of silver stained SDS-PAGE gels. A recombinant rat CKIδ enzyme used for control purposes was obtained from New England Biolabs.

mammalian CDK5 = mammalian CDK5 (Homo sapiens, UniProt Q00535); conditions: Knockaert et al., 2002; cited from earlier work
Chain of mammalian CDK5 (Q00535 whole entry): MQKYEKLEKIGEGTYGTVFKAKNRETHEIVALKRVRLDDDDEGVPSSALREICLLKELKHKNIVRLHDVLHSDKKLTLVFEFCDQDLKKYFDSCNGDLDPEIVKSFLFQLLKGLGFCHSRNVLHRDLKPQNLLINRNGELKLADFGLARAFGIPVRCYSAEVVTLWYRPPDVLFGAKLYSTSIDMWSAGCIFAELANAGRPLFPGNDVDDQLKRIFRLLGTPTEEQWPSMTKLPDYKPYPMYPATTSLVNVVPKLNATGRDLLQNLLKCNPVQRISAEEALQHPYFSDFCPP
Chain of mammalian CDK5 (Q15078 99-307 partner limits assumed): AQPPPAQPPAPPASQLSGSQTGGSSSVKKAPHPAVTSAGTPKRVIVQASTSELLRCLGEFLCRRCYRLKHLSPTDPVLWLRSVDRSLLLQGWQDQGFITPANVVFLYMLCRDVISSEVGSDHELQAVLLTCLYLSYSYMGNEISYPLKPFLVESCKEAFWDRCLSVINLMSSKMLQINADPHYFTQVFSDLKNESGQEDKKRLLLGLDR

T. gondii tachyzoites = experiment: [3H]-uracil uptake assay of parasite growth inhibition in infected HFF cell monolayers; type: cell-based, Toxoplasma gondii
Text: Host cells and parasite cultures—RH strain or RH ΔHXGPRT strain tachyzoites of T. gondii were maintained by serial passage in confluent monolayers of human foreskin fibroblasts (“HFF”) as described (Roos, D. S. et al., 1994, Methods Cell Biol. 45:27-63). A modified [^3H]-uracil uptake assay (Pfefferkorn, E. R. and Pfefferkorn, L. C., 1977, J. Protozool. 24:449-453) adapted for use in 96-well scintillation plates (Cytostar-T, Amersham; Piscataway, N.J.) was used to measure parasite growth inhibition. Each well, previously seeded with HFF cells, was inoculated with T. gondii tachyzoites (2×10^4) in 200 μl of growth media containing 2 μCi [5,6]-^3H-uracil (Perkin-Elmer NEN; Boston, Mass.) and serially diluted compound. Following incubation at 37° C. for 36-48 hours, tritium-incorporation into host cell monolayers was directly counted in a microplate scintillation counter (MicroBeta, PerkinElmer-Wallac).

mammalian CDK1 = mammalian CDK1 (Homo sapiens, UniProt P06493); conditions: Knockaert et al., 2002; cited from earlier work
Chain of mammalian CDK1 (P06493 whole entry): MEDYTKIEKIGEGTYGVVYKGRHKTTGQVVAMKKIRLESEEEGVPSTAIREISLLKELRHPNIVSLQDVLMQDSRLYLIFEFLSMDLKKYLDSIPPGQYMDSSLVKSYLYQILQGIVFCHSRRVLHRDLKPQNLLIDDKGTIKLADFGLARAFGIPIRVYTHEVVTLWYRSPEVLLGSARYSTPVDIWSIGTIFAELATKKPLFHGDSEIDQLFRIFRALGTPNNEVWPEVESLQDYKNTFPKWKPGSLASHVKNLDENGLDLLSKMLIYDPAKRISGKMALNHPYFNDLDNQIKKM
Chain of mammalian CDK1 (P14635 whole entry partner): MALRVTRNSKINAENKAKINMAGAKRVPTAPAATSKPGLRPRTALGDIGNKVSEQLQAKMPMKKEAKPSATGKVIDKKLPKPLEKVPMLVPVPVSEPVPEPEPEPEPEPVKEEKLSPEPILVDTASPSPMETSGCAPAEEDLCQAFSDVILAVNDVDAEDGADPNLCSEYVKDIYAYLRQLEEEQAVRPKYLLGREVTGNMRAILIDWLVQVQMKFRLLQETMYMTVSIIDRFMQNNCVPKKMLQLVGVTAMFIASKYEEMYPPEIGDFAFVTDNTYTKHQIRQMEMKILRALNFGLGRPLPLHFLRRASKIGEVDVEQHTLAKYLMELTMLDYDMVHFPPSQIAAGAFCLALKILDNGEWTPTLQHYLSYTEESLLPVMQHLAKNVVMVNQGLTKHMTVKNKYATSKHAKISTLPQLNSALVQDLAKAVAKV

[1] = test system: T. gondii PKG, CKIα and -β, and CDPK1; native E. tenella CKIα; experiment: Protein kinase assays, the parasite kinases tested (Table 2 panel); type: biochemical
Method: as §4, §2

[2] = test system: CC(C)C[C@H](NC(=O)CNC(=O)[C@@H]1CCCN1C(=O)[C@H](CC(C)C)NC(=O)[C@H](CO)NC(=O)[C@H](C)NC(=O)[C@@H](NC(=O)[C@H](COP(=O)(O)O)NC(=O)[C@H](CC(C)C)NC(=O)[C@H](C)NC(=O)[C@H](CCCNC(=N)N)NC(=O)[C@H](CCCNC(=N)N)NC(=O)[C@H](CCCNC(=N)N)NC(=O)[C@@H](N)CCCCN)C(C)C)C(=O)O; experiment: Casein kinase assay, TgCKIα (recombinant FLAGTgCKIα or partially purified native); type: biochemical; conditions: other: substrate titration, 2 μM ATP; pH 7.4; 37.0 °C
Method: as §1
(§5) A variety of commercially available peptide substrates were evaluated. From Calbiochem (San Diego, Calif.): CKI substrate (RRKDLHDDEEDEAMSITA; SEQ ID NO:13); CKII substrate (RRADDSDDDDD; SEQ ID NO:14); Syntide-2 substrate (PLARTLSVAGLPGKK; SEQ ID NO:15); CaM kinase II substrate (281-291) (MHKNETVECLK; SEQ ID NO:16). From Promega: CKI substrate (DDDEESITRR; SEQ ID NO:17) and kemptide (LRRASLG; SEQ ID NO:18). […]
as §3

[3] = substrate: CC(C)C[C@H](NC(=O)CNC(=O)[C@@H]1CCCN1C(=O)[C@H](CC(C)C)NC(=O)[C@H](CO)NC(=O)[C@H](C)NC(=O)[C@@H](NC(=O)[C@H](COP(=O)(O)O)NC(=O)[C@H](CC(C)C)NC(=O)[C@H](C)NC(=O)[C@H](CCCNC(=N)N)NC(=O)[C@H](CCCNC(=N)N)NC(=O)[C@H](CCCNC(=N)N)NC(=O)[C@@H](N)CCCCN)C(C)C)C(=O)O; experiment: Casein kinase assay, recombinant FLAGTgCKIβ; type: biochemical; conditions: other: substrate titration, 2 μM ATP; pH 7.4; 37.0 °C
Method: as §1, §5, §3

Chain of TgCKIα (Q6QNM1 whole entry, looked up): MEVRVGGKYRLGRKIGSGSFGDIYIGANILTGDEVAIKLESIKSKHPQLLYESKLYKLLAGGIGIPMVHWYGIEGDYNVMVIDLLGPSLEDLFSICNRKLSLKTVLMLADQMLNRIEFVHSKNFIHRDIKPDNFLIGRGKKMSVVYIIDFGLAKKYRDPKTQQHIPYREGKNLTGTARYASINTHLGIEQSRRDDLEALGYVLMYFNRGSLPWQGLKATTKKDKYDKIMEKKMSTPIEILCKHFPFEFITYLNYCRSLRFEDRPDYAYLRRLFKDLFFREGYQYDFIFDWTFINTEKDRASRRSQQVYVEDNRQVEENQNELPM

Work on NC1=NC(=O)/C(=C2\CCNC(=O)c3[nH]c(Br)cc32)N1 [Hymenialdisine] yielded an IC50 (TgCKIα) of 7 to 10 nM, an IC50 (rat CKIδ) of 60 nM and an IC50 (TgCKIβ) of 7 to 10 nM.

For O=C1Cc2c([nH]c3ccc([N+](=O)[O-])cc23)-c2ccccc2N1 [alsterpaullone], the “potency against mammalian CDK5 relative to kenpaullone” value (mammalian CDK5) is listed as “at least 10 fold”, the IC50 (T. gondii tachyzoites; Toxoplasma gondii, infected HFF cell monolayers, read-out: IC50, antiparasitic activity in the whole cell assay) is listed as 1200 nM and the “potency against mammalian CDK1 relative to kenpaullone” value (mammalian CDK1) is listed as “at least 10 fold”. The “activity against the parasite kinases tested” value [1] was “Neither kenpaullone nor alsterpaullone showed any activity”.

For O=C1Cc2c([nH]c3ccc(Br)cc23)-c2ccccc2N1 [kenpaullone], the “activity against cultured T. gondii parasites” value (T. gondii tachyzoites; uracil uptake / whole cell assay) was “inactive” and the “activity against the parasite kinases tested” value [1] was “Neither kenpaullone nor alsterpaullone showed any activity”.

TgCKIα (Toxoplasma gondii) showed a Vmax [2] of 26 nmol/min/mg.

B1: TgCKIβ (Toxoplasma gondii) (protein)
chain: MAHHQDTRNHTGVGPSSSIPLKDLKIAGVWKIGRKIGSGSFGDIYKGLNSQTGQEVALKVESTKAKHPQLLYEYKLLKHLQGGTGIAQVFCCETAGDHNIMAMELLGPSLEDVFNLCNRTFSLKTILLLADQFLQRVEYIHSKNFIHRDIKPDNFLLGGAGNQNTIYVIDFGLAKKFRDPKTHQHIPYRENKNLTGTARYASISAHLGSEQSRRDDLEAVGYVLMYFCRGGTLPWQGIKANTKQEKYHKIMEKKMSTPVEVLCKGYPSEFATYLHYCRSLRFEDRPDYAYLKRLFRDLYIKEGYDDSDREFDWTVKLSSRSLGPPSSRAQHVLLSQDTRTRGKRETDRPVAARSGDRERGIHFSNGNVGNPSMATNPGGLSVMVHERTSLVDQGDRGSRETSTRKEDAKDGRWPGGRFSCLPLLCRRSPTKA
Molecule B1 has a Km [3] of 79 µM and a Vmax [3] of 37 nmol/min/mg.
